Measured values taken from paper PMC10778976, “BAY-3827 and SBI-0206965: Potent AMPK Inhibitors That Paradoxically Increase Thr172 Phosphorylation” (International Journal of Molecular Sciences, 2023).
Converted amounts (≈) assume the structure as drawn.

What was measured:
[1] = biological target: T1, “naïve” (unphosphorylated), bacterially expressed human α1β1γ1 complex (Homo sapiens, UniProt Q13131+Q9Y478); experiment: Allosteric activation of naïve (unphosphorylated) α1β1γ1 complex by MK-8722 with and without BAY-3827; type: biochemical; settings: BAY-3827 30 nM
T1 construct: (His)6
From the text: AMPK assays measured the transfer of radioactivity from labelled ATP to a peptide substrate, which was separated from unreacted ATP by binding to P81 paper. This assay was described previously, except that we used [γ-^33P]ATP rather than [γ-^32P]ATP. The peptide substrate was the AMARA peptide in all experiments other than one, which analyzed allosteric activation by AMP (Figure 2A), when, for technical reasons, the SAMS peptide was used instead. With purified preparations of AMPK, it was assayed in solution, but for assays in cell lysates (Figure 3D and Figure 4D), it was first immunoprecipitated using a mixture of anti-α1 and -α2 antibodies and assayed in resuspended immunoprecipitates. After the initial immunoprecipitation of lysate containing 80 µg of protein, the pellets were washed twice with 1 mL of high salt IP buffer (50 mM Tris-HCL, pH 7.4 at 4 °C, 1 M NaCl, 1 mM EDTA, 1 mM EGTA, 50 mM NaF, 5 mM Na pyrophosphate, 1 mM dithiothreitol, 0.1% (v/v) Triton X-100) and twice with 1 mL of low salt IP buffer (as above but only 150 mM NaCl), followed by a final wash in 1 mL of assay buffer (50 mM Na Hepes, pH7.4, 150 mM NaCl, 1 mM dithiothreitol, 0.02% (v/v) Brij-35). After each wash, the pellet was recovered via centrifugation (16,000× g, 3 min) and then resuspended. The final resuspended pellets from each biological replicate were divided into two aliquots (40 µg lysate protein) to provide technical replicates and assayed as above.

[2] = tested on: RSK (RSK1-4, also known as RPS6KA1-4); settings: selectivity screen against 331 kinases, 1 µM, 10 µM ATP; cited from earlier work
[3] = tested on: human AMPK (α2β1γ1 complex); settings: low ATP concentration (10 µM); read-out: IC50, inhibition of human AMPK (α2β1γ1 complex); cited from earlier work
[4] = Aqueous solubility; type: physicochemical; settings: aqueous medium (not further specified)
[5] = tested on: phosphorylation of Ser29 on ATG14, an established target for ULK1, in U2OS cells; experiment: ATG14 phosphorylation (ULK1 target) in U2OS cells (Western blot); type: cell-based, human; settings: read-out: IC50, inhibition of ATG14 (Ser29) phosphorylation
Experimental: T-Rex U2OS cells carrying a Flp Recombinase Target (FRT) site were generated as described previously and grown in Dulbecco’s Modified Eagle’s Medium (DMEM) supplemented with 10% (v/v) FBS and 1% (v/v) penicillin/streptomycin.
Cells were lysed rapidly in situ on culture plates using ice-cold lysis medium containing phosphatase inhibitors, as described previously.
SDS-PAGE was performed using precast NuPAGE Tris-acetate 3–8% gradient polyacrylamide gels in Tris-acetate running buffer when analyzing ACC, GBF1, or Raptor, or NuPAGE Bis-Tris 4–12% gradient polyacrylamide gels in the MOPS buffer system (ThermoFisher Scientific, Waltham, MA, USA) for other proteins (unless stated otherwise). Proteins were transferred to nitrocellulose membranes using the iBlot 2 system (ThermoFisher Scientific). Membranes were enhanced if necessary using SuperSignal Western Blot Enhancer (ThermoFisher Scientific), then blocked for 1 h in Li-Cor Odyssey blocking buffer. The membranes were probed with the appropriate primary antibody (0.1–1 mg/mL) overnight at 4 °C. […] Protein concentrations were determined by Coomassie Blue binding with bovine serum albumin as a standard. The cellular levels of AMP and ATP were determined via direct perchloric acid extraction from cells, with LC:MS used to estimate the levels of each nucleotide.

[6] = biological target: human α1β1γ1 complex (Homo sapiens, UniProt Q13131); settings: previous estimate; read-out: IC50, inhibition of α1β1γ1; cited from earlier work
[7] = biological target: T2, LKB1 (human LKB1:STRADα:MO25α complex) (Homo sapiens, UniProt Q15831); settings: single fixed inhibitor concentration (0.25 µM); cited from earlier work
T2 construct: made in house
T2 sequence (Q15831 1-433): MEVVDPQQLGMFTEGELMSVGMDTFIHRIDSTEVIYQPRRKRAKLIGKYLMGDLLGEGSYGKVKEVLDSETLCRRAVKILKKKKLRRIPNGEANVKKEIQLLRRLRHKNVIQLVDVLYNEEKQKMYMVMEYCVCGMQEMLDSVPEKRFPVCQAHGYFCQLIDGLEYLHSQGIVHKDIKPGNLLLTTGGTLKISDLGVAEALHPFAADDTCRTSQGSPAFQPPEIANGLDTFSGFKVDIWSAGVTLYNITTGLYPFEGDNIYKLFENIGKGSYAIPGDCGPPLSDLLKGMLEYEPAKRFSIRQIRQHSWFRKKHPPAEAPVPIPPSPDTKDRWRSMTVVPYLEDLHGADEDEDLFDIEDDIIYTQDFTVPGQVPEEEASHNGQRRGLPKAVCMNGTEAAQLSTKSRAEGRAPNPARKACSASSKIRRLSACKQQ
T2 sequence (Q7RTN6 1-431 partner): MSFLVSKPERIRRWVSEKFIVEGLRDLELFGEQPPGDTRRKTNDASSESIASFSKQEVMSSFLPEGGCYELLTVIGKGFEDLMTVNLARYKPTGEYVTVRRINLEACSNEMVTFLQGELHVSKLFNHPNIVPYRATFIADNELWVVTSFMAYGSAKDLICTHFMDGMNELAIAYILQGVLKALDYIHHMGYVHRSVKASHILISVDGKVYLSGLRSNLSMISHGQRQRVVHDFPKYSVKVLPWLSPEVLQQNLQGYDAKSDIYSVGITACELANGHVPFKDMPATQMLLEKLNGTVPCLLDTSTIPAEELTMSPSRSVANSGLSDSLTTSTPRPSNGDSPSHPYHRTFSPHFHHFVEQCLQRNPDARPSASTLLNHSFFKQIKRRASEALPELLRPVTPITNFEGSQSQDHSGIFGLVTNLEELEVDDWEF
T2 sequence (Q9Y376 1-341 partner): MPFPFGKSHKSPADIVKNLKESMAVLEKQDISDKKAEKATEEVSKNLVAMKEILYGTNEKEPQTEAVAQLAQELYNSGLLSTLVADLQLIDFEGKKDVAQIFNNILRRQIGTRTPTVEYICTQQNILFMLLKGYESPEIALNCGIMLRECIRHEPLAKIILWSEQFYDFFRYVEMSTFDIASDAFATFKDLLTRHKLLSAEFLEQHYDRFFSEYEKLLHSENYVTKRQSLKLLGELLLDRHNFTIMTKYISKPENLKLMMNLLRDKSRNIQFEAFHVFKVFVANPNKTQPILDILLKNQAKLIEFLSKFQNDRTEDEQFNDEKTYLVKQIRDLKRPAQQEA

T1 sequence (Q13131 whole entry): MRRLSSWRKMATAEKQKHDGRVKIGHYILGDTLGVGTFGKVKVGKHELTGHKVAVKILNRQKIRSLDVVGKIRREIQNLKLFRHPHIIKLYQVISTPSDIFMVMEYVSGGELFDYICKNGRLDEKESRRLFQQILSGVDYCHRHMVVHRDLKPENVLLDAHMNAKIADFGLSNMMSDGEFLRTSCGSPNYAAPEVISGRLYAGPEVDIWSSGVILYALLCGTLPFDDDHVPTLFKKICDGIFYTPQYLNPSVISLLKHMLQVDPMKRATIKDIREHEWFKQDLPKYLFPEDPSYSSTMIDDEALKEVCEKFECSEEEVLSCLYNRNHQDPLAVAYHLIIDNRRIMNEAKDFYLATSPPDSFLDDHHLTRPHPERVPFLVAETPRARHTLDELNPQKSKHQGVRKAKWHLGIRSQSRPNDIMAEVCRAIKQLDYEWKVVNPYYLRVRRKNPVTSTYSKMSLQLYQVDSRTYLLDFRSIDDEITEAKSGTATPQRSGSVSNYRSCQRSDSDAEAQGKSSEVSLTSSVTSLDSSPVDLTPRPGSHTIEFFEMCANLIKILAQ
T1 sequence (Q9Y478 2-270): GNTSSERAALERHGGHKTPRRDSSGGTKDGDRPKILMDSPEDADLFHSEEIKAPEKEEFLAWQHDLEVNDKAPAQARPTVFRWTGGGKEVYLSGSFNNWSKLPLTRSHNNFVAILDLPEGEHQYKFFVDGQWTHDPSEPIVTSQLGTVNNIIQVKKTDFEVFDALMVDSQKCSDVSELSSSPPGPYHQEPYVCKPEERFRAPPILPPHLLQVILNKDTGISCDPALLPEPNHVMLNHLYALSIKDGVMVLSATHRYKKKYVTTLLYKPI
T1 sequence (P54619 whole entry partner): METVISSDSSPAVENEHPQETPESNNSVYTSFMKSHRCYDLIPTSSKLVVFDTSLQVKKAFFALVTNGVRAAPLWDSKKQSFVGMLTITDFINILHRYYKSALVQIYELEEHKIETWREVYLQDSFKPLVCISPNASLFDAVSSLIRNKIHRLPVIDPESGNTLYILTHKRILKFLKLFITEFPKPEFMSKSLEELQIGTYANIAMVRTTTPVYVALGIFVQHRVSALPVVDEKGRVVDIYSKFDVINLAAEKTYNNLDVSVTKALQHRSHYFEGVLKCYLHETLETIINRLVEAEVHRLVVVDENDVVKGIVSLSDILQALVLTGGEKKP
human α1β1γ1 complex, sequence (Q13131 whole entry): as the sequence (Q13131 whole entry) above
human α1β1γ1 complex, sequence (P54619 whole entry, further chain): as the sequence (P54619 whole entry partner) above
human α1β1γ1 complex, sequence (Q9Y478 2-270, further chain): as the sequence (Q9Y478 2-270) above

fold increase of EC50 for MK-8722 [1]	basal activity (without MK-8722) ([1]; control without inhibitor 11)	solubility [4]	SMILES	inhibition of all four isoforms of RSK [2]	IC50 [3]	IC50 [5]	IC50 [6]	inhibition of LKB1 [7]
7 fold	8.7 nmol/min/mg	0.3 µg/mL (≈ 0.64 µM)	CCc1ccccc1C(=O)Nc1n[nH]c2c(C)c(F)c(C3C(C#N)=C(C)N(C)C(C)=C3C#N)cc12 [BAY-3827]	potently inhibit	1.4 nM			
			CNC(=O)c1ccccc1Oc1nc(Nc2cc(OC)c(OC)c(OC)c2)ncc1Br [SBI-0206965]			67000 nM	300 nM	did not inhibit
